Data taken from patent US9375000B2, “Pesticidal arylpyrrolidines” (Bayer Intellectual Property GmbH, priority 2011, dated 2016).

Columns and labels:
Format in all cases: in vivo
[1] = test system: Cucurbit Leaf Beetle (Aulacophora femoralis); assay: Cucurbit leaf beetle (Aulacophora femoralis) cucumber leaf dip test; conditions: after 7 days
Outline: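 Cucumber leaves dipped in compound formulated with DMF and polyoxyethylene alkyl phenyl ether, diluted in water, with ammonium salt or ammonium salt plus penetration enhancer at 1000 ppm added if necessary; dried leaves placed on sterilized soil with five second-instar larvae. Kept at 25° C; larval mortality counted after 7 days.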

[2] = test system: Two-Spotted Spider Mite (Tetranychus urticae); assay: Two-spotted spider mite (Tetranychus urticae) spray test on kidney bean; conditions: after 7 days
Outline: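 Kidney bean plants at the two-leaf stage carried 50-100 adult mites and were sprayed one day later with compound in DMF/polyoxyethylene alkyl phenyl ether diluted in water. Ammonium salt and penetration enhancer at 1000 ppm were added if needed. Acaricidal activity (% mites killed) was scored after 7 days in a greenhouse.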

[3] = test system: Tobacco Cutworm (Spodoptera litura) Larvae; assay: Tobacco cutworm (Spodoptera litura) larvae, sweet potato leaf dip test; conditions: dead larvae after 7 days
Method: (§1) Unless not mentioned otherwise, the test solutions were prepared as follows:
(§2) Solvent: 3 parts by weight Dimethylformamide
(§3) Emulsifier: 1 part by weight Polyoxyethylene alkyl phenyl ether
(§4) In order to make an appropriate formulation of an active compound, 1 part by weight of the active compound is mixed with the above mentioned amount of solvent and emulsifier and the mixture is diluted with water to a prescribed concentration. Ammonium salt or ammonium salt and penetration enhancer in a dosage of 1000 ppm are added to the desired concentration if necessary.
Leaves of sweet potato were immersed in the test solution at the appropriate concentration, and the leaves were dried in air. The leaves were then placed in a petri dish having a diameter of 9 cm, and ten Spodoptera litura at third instar larvae were released therein. The petri dishes were placed in a temperature-controlled chamber at 25° C. After 2 days and 4 days more sweet potato leaves were added. After 7 days, the number of dead larvae was counted to calculate the insecticidal activity. An insecticidal activity of 100% means that all larvae were killed, whereas an insecticidal activity of 0% means that no larva was killed. In the current test, the results of two petri dishes for each treatment were averaged.

[4] = test system: Larvae of Spodoptera litura; assay: Larvae of Spodoptera litura, method using artificial feeds; conditions: artificial feed, after 7 days
Outline: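 Compound formulated in dimethylformamide with polyoxyethylene alkyl phenyl ether emulsifier, water-diluted and poured onto artificial diet. Five 3rd-instar Spodoptera litura larvae per cup, held at 25° C and 50-60% humidity. Mortality after 7 days expressed as pesticidal ratio.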

[5] = test system: Thrips palmi; assay: Thrips palmi spray test (THRIPL); conditions: after 6 days
Method: as §1, §2, §3, §4
The compound solutions are sprayed to a cucumber seedling (Cucumis sativus). After drying, the treated plant is placed in a plastic stand. About 100 thrips-eggs (Thrips palmi) on a piece of filter paper are attached to the plant and covered with a cage to keep 100% humidity. The plant is kept in a room at 23° C. After 6 days activity in % is evaluated by feeding damage degree. An insecticidal activity of 100 means that there was no feeding damage, whereas an insecticidal activity of 0% means that there is no difference to the untreated control.

[6] = active compound concentration 20 ppm
[7] = active compound concentration 4 ppm
[8] = active compound concentration 100 ppm

| Structure (SMILES) | insecticidal activity [1, 6] [%] | acaricidal activity [2, 7] [%] | insecticidal activity [3, 7] [%] | acaricidal activity [2, 6] [%] | insecticidal activity (pesticidal ratio) [4, 7] [%] | insecticidal activity (pesticidal ratio) [4, 6] [%] | other results |
| --- | --- | --- | --- | --- | --- | --- | --- |
| O=C(CC(F)(F)F)NCc1ccc(N2CCC(c3cc(Cl)cc(Cl)c3)(C(F)(F)F)C2O)cc1F (mixture of isomers) [A1-101] | 100 | 100 | 80 |  |  |  |  |
| CCC(=O)NCc1ccc(N2CCC(c3cc(Cl)c(Cl)c(Cl)c3)(C(F)(F)F)C2O)cc1CC (mixture of isomers) [A1-140] |  | 98 | 100 |  |  |  |  |
| CCC(=O)NCc1ccc(N2CCC(c3cc(C(F)(F)F)cc(C(F)(F)F)c3)(C(F)(F)F)C2O)cc1CC (mixture of isomers) [A1-195] | 100 | 100 | 100 |  |  |  |  |
| CCC(=O)NCc1ccc(N2CCC(c3cc(F)cc(Cl)c3)(C(F)(F)F)C2O)nc1C(F)(F)F (mixture of isomers) [A3-167] |  |  | 80 | 90 |  |  |  |
| CCC(=O)NCc1ccc(N2CCC(c3cc(F)c(F)c(F)c3)(C(F)(F)F)C2O)nc1C(F)(F)F (mixture of isomers) [A3-189] | 100 |  | 80 |  |  |  |  |
| O=C(NCc1ccc(N2CCC(c3cc(F)c(F)c(F)c3)(C(F)(F)F)C2O)nc1C(F)(F)F)C1CC1 (mixture of isomers) [A3-192] | 100 |  | 100 |  |  |  |  |
| CC(=O)NCc1ccc(N2CCC(c3cc(Cl)c(F)c(Cl)c3F)(C(F)(F)F)C2O)nc1C(F)(F)F (mixture of isomers) [A3-210] | 100 | 100 | 100 |  |  |  |  |
| CC(=O)NCc1ccc(N2CCC(c3cc(Cl)c(F)c(Cl)c3)(C(F)(F)F)C2O)cc1C(F)(F)F (centres unmarked) [A1-271] |  | 100 | 100 |  |  |  |  |
| CC(=O)NCc1ccc(N2CCC(c3cc(Cl)c(Cl)c(C(F)(F)F)c3)(C(F)(F)F)C2O)cc1C(F)(F)F (centres unmarked) [A1-348] | 100 |  | 100 | 100 |  |  |  |
| CCC(=O)NCc1ccc(N2CCC(c3cc(Cl)c(Cl)c(C(F)(F)F)c3)(C(F)(F)F)C2O)cc1C(F)(F)F (centres unmarked) [A1-349] | 100 |  | 100 | 100 |  |  |  |
| O=C(NCc1ccc(N2CCC(c3cc(Cl)c(Cl)c(C(F)(F)F)c3)(C(F)(F)F)C2O)cc1C(F)(F)F)C1CC1 (centres unmarked) [A1-352] | 100 |  | 100 | 100 |  |  |  |
| CCc1nc(N2CCC(c3cc(Cl)c(Cl)c(Cl)c3)(C(F)(F)F)C2O)ccc1CNC(=O)C1CC1 (centres unmarked) [A3-93] | 100 |  | 100 | 100 |  |  |  |
| CS(=O)(=O)CC(=O)NCc1ccc(N2CCC(c3cc(Cl)cc(C(F)(F)F)c3)(C(F)(F)F)C2O)nc1C(F)(F)F (centres unmarked) [A3-275] | 100 | 100 |  | 100 | 100 | 100 | insecticidal activity (by feeding damage degree) [5, 6]: 98%; insecticidal activity [1, 7]: 100% |
| O=C(NCc1ccc(N2CCC(c3cc(Cl)cc(Cl)c3F)(C(F)(F)F)C2O)nc1C(F)(F)F)C1CC1 (centres unmarked) [A3-348] |  | 100 |  |  | 100 |  | insecticidal activity (by feeding damage degree) [5, 6]: 90%; insecticidal activity [1, 7]: 100% |
| CCC(=O)NCc1cc(F)c(N2CCC(c3cc(C(F)(F)F)cc(C(F)(F)F)c3)(C(F)(F)F)C2O)nc1Cl (centres unmarked) [A3-378] |  |  |  |  | 100 |  | insecticidal activity (by feeding damage degree) [5, 8]: 90%; insecticidal activity [1, 7]: 100%; acaricidal activity [2, 8]: 98% |
| CCC(=O)NCc1cnc(N2CCC(c3cc(Cl)cc(Cl)c3)(C(F)(F)F)C2O)nc1C(F)(F)F (centres unmarked) [A4-2] |  |  | 100 |  |  |  |  |
| Cc1nc(N2CCC(c3cc(Cl)c(Cl)c(Cl)c3)(C(F)(F)F)C2O)ncc1CNC(=O)C1CC1 (centres unmarked) [A4-49] | 100 | 98 |  |  | 100 | 100 | insecticidal activity (by feeding damage degree) [5, 6]: 98% |
| CC(=O)NCc1cnc(N2CCC(c3cc(Cl)c(F)c(Cl)c3F)(C(F)(F)F)C2O)nc1C(F)(F)F (centres unmarked) [A4-111] | 100 | 100 | 100 |  |  |  |  |
| O=C(NCc1cnc(N2CCC(c3cc(Cl)c(Cl)c(Cl)c3)(C(F)(F)F)C2O)nc1C(F)F)C1CC1 (centres unmarked) [A4-219] |  | 100 |  |  | 100 |  | insecticidal activity (by feeding damage degree) [5, 6]: 90%; insecticidal activity [1, 7]: 100% |
| O=C(CC(F)(F)F)NCc1cnc(N2CCC(c3cc(Cl)c(Cl)c(Cl)c3)(C(F)(F)F)C2O)nc1C(F)F (centres unmarked) [A4-221] |  | 100 |  |  | 100 |  | insecticidal activity (by feeding damage degree) [5, 6]: 90%; insecticidal activity [1, 7]: 100% |
| CCC(=O)NCc1cnc(N2CCC(c3cc(C(F)(F)F)cc(C(F)(F)F)c3)(C(F)(F)F)C2O)cc1C(F)(F)F (centres unmarked) [A5-24] | 100 |  |  | 100 | 100 | 100 | insecticidal activity (by feeding damage degree) [5, 6]: 90%; insecticidal activity [1, 7]: 100% |
| O=C(CC(F)(F)F)NCc1cnc(N2CCC(c3cc(C(F)(F)F)cc(C(F)(F)F)c3)(C(F)(F)F)C2O)cc1C(F)(F)F (centres unmarked) [A5-29] | 100 |  |  | 100 | 100 | 100 | insecticidal activity (by feeding damage degree) [5, 6]: 90%; insecticidal activity [1, 7]: 100% |
| CS(=O)(=O)CC(=O)NCc1cnc(N2CCC(c3cc(C(F)(F)F)cc(C(F)(F)F)c3)(C(F)(F)F)C2O)cc1C(F)(F)F (centres unmarked) [A5-33] | 100 |  |  | 98 | 100 | 100 | insecticidal activity (by feeding damage degree) [5, 6]: 90%; insecticidal activity [1, 7]: 100% |
| O=C(NCc1ccc(N2CC(c3cc(Cl)c(Cl)c(Cl)c3)(C(F)(F)F)CC2O)nc1C(F)(F)F)C1CC1 (centres unmarked) [A′3-16] | 100 |  | 100 |  |  |  |  |
| O=C(NCc1ccc(N2CCC(c3cc(C(F)(F)F)cc(C(F)(F)F)c3)(C(F)(F)F)C2=O)cc1Cl)C1CC1 (centres unmarked) [B1-27] |  |  |  |  |  | 100 | insecticidal activity [3, 6]: 100% |
| O=C(NCc1ccc(N2CCC(c3cc(Cl)c(Cl)c(Cl)c3)(C(F)(F)F)C2=O)nc1C(F)(F)F)C1CC1 (centres unmarked) [B3-16] |  |  |  |  |  | 100 | insecticidal activity [3, 6]: 100% |
| O=C(NCc1ccc(N2CC(c3cc(C(F)(F)F)cc(C(F)(F)F)c3)(C(F)(F)F)CC2=O)nc1Cl)C1CC1 (centres unmarked) [C1-27] | 100 |  |  |  |  | 100 | insecticidal activity [3, 6]: 100% |
| O=C(NCc1ccc(N2CC(c3cc(Cl)c(Cl)c(Cl)c3)(C(F)(F)F)CC2=O)nc1C(F)(F)F)C1CC1 (centres unmarked) [C3-16] |  |  |  |  |  | 100 | insecticidal activity [3, 6]: 100% |
